Measured values published in US6734211B1, “Compositions and methods for promoting nerve regeneration” (Oregon Health & Sciences University, priority 1999, dated 2004).

Columns and labels:
sciatic nerve = details: rat, following a sciatic nerve crush lesion; cited from earlier work
[1] = tested on: SH-SY5Y human neuroblastoma cells; assay: Neurite outgrowth of SH-SY5Y cells in the presence of NGF; type: cell-based; details: for Mean Length of Top 50% of Neuritic Processes: 168 hours; for neurite outgrowth, effect of the compound: with NGF, concentration dependence
Method: This Example illustrates that FK506 and geldanamycin promote nerve regeneration by a common mechanism. SH-SY5Y human neuroblastoma cells were maintained in DMEM medium (GIBCO) supplemented with 10% fetal calf serum (SIGMA), 50 IU/mL penicillin, and […] streptomycin (GIBCO) at 37° C. in 7% CO2. Cells were plated in six-well plates at 1×10^6 cells/well and treated with […] aphidicolin (SIGMA). At five days, cells were washed, treated with nerve growth factor (NGF) (Boehringer Mannheim, Indianapolis, Ind.) at 10 ng/mL ([…]) (Calbiochem-Novabiochem Int'l., La Jolla, Calif.) and/or geldanamycin (0.1, 1, and 10 nM) (Calbiochem-Novabiochem, La Jolla, Calif.) dissolved in the DMEM medium. Media was changed at 96 hours and replaced with fresh media containing the compounds (NGF plus FK506 and/or geldanamycin) for an additional 72 hours (total time, 168 hours). The top 50% of axonal lengths were selected for statistical analysis. All experiments were run in duplicate wells and repeated at least twice for reproducibility.
(§1) For analysis of neurite process length of cells, 20 fields per well were randomly photographed at 72 and 168 hours. Neurite lengths were measured on photographic prints using a Houston Instrument HI-PAD digitizing tablet connected to an IBM XT computer with appropriate software (Bioquant IV, R&M Biometrics, Nashville, Tenn.); only those processes greater than two times the cell body length were measured. Data from identically treated wells were not different and were therefore combined. […] Histograms were compared using a Mann-Whitney U test, which makes no assumptions about the shape of the distribution.
Neuroblastoma SH-SY5Y cells were used to examine human neurite outgrowth in vitro and to explore which neuroimmunophilin mediates the effect.

[2] = tested on: hippocampal neurons of FKBP-12 knockout mice; assay: Axonal length in primary neuronal hippocampal cultures from FKBP-12 knockout mice; type: cell-based
Method: (§2) FKBP-12 knockout mice (Shou, et al., Nature 391:489, 1998) were used to test whether FKBP-12 is necessary for FK506's ability to increase nerve elongation. Such mice usually die from severe cardiomyopathy between embryonic day 14.5 (E14.5) and birth, consistent with the known association between FKBP-12 and calcium release channels. […] Primary neuronal hippocampal cultures were prepared from E18.5 homozygote FKBP-12 knockout and wild-type mice.

[3] = tested on: hippocampal neurons of wild-type mice; assay: Axonal length in primary neuronal hippocampal cultures from wild-type mice; type: cell-based
Method: as §2

hippocampal cells = assay: Neurite outgrowth of hippocampal cells after 72 hours; type: cell-based
Method: as §1
Utilizing the in vitro assay described in Example 2, the effect of radicicol on neurite outgrowth was investigated. Hippocampal cells were treated with radicicol at a concentration of 0.1 ng/mL and at a concentration of 10 ng/mL. The neurite outgrowth for radicicol treated cells was compared to the outgrowth for untreated cells and for cells treated with 10 ng/mL of NGF.
Utilizing the in vitro assay described in Example 2, the effect of heat alone or in combination with various compounds on neurite outgrowth was investigated. […] FIG. 5 also illustrates that a combination of heat treatment and treatment with both NGF, and Hsp-90 antibodies is not as effective as the combination of heat and NGF treatment. […]

[4] = geldanamycin 10 nM co-treatment

C=CC[C@@H]1/C=C(\C)C[C@H](C)C[C@H](OC)[C@H]2O[C@@](O)(C(=O)C(=O)N3CCCC[C@H]3C(=O)O[C@H](/C(C)=C/[C@@H]3CC[C@@H](O)[C@H](OC)C3)[C@H](C)[C@@H](O)CC1=O)[C@H](C)C[C@@H]2OC [FK506]
functional recovery and axonal regeneration (sciatic nerve): speed functional recovery and axonal regeneration in the rat in a dose-dependent manner | Mean Length of Top 50% of Neuritic Processes ([1]; FK506 10 nM + NGF 10 ng/mL): 156 µm | neurite outgrowth (cumulative histograms of neurite lengths) ([1]; FK506 10 pM-10 nM): increases neurite outgrowth | neurite outgrowth (cumulative histograms of neurite lengths) ([1]; FK506 100 nM): less effective | neurite outgrowth (cumulative histograms of neurite lengths) ([1]; FK506 1000 nM or greater): neurite outgrowth was inhibited | neurite outgrowth, effect of the compound [1]: stimulate neurite outgrowth in a concentration dependent manner | Mean axonal lengths of hippocampal neurons ([2]; FK506-treated cultures, FKBP-12 knockout, mean±S.E.M.): 264±18.2 | increase over non-treated values ([2]; FKBP-12 knockout cells): 30% | Mean axonal lengths of hippocampal neurons ([3]; FK506-treated cultures, wild-type, mean±S.E.M.): 276±11.1 | increase over non-treated values ([3]; wild-type cells): 26%

COC1=C2C[C@@H](C)C[C@H](OC)[C@H](O)[C@@H](C)/C=C(\C)[C@H](OC(N)=O)[C@@H](OC)/C=C\C=C(/C)C(=O)NC(=CC1=O)C2=O [Geldanamycin, geldanamycin]
Mean Length of Top 50% of Neuritic Processes ([1]; geldanamycin 1 nM + NGF 10 ng/mL): 128 µm | Mean Length of Top 50% of Neuritic Processes ([1]; geldanamycin 10 nM + NGF 10 ng/mL): 110 µm | effect on neurite outgrowth promotion by FK506, dexamethasone or β-estradiol ([1]; geldanamycin 0.1 nM co-treatment): less effective in inhibiting the neurite outgrowth-promoting effect of all these compounds | effect on neurite outgrowth promotion by FK506, dexamethasone or β-estradiol [1, 4]: inhibited neurite outgrowth promotion by FK506 , dexamethasone or β-estradiol | effect on neurite outgrowth promotion by FKBP-52 antibody [1, 4]: enhanced the neurite outgrowth-promoting effect of the FKBP-52 antibody | neurite outgrowth ([1]; geldanamycin 0.1-10 nM alone): increased neurite outgrowth in a concentration-dependent fashion | neurite outgrowth, effect of the compound [1]: stimulate neurite outgrowth in a concentration dependent manner

COc1cccc(-c2cc(=O)c3ccccc3o2)c1N [PD 098059]
effect on neurite outgrowth by NGF and FK-506 (FIG. 6) (hippocampal cells; 2 concentrations): blocks neurite outgrowth by NGF and FK-506 in a concentration dependent fashion | effect on neurite outgrowth by radicicol (FIG. 7) (hippocampal cells; 2 concentrations): blocks the action of radicicol in a concentration dependent fashion | effect on neurite outgrowth by radicicol (FIG. 7) (hippocampal cells; highest concentration): almost completely blocks activity

[Na+].[Na+].[O]=[Mo](=[O])([O-])[O-] [molybdate, sodium molybdate]
effect on neurite outgrowth promotion by FK506 ([1]; molybdate 20 mM): reduced the neurite outgrowth promotion elicited by FK506 | effect on neurite outgrowth promotion by FKBP-52 antibody ([1]; molybdate 20 mM): inhibited the neurite outgrowth-promoting effects of FKBP-52 antibody | effect on neurite outgrowth promotion by β-estradiol and geldanamycin ([1]; molybdate 20 mM): completely [Mann-Whitney U test (α=0.05)] inhibited the neurite outgrowth-promoting effect of β-estradiol and geldanamycin | neurite outgrowth-promoting effect of molybdate in the presence of dexamethasone ([1]; molybdate 20 mM): significantly [Mann-Whitney U test (α=0.05)] reduced compared to molybdate alone | neurite outgrowth ([1]; molybdate 20 mM itself): agonist effect on neurite outgrowth

C[C@@H]1C[C@H]2O[C@@H]2/C=C\C=C\C(=O)Cc2c(Cl)c(O)cc(O)c2C(=O)O1 [radicicol]
neurite outgrowth (cumulative histogram, FIG. 3) (hippocampal cells; radicicol 0.1 ng/mL and 10 ng/mL vs NGF 10 ng/mL): more effective than NGF alone in stimulating outgrowth

C[C@]12CC[C@@H]3c4ccc(O)cc4CC[C@H]3[C@@H]1CC[C@@H]2O [β-estradiol]
neurite outgrowth compared with dexamethasone ([1]; 50 nM each): greater positive effect on neurite outgrowth than dexamethasone (50 nM) | neurite outgrowth, effect of the compound [1]: significantly increased neurite outgrowth in SH-SY5Y cells in a concentration-dependent manner

B1: NGF: nerve growth factor (Boehringer Mannheim) (protein, UniProt P01139 122-241, looked up)
Beta-nerve growth factor: SSTHPVFHMGEFSVCDSVSVWVGDKTTATDIKGKEVTVLAEVNINNSVFRQYFFETKCRASNPVESGCRGIDSKHWNSYCTTTHTFVKALTTDEKQAAWRFIRIDTACVCVLSRKATRRG
modifications: Beta-nerve growth factor
Mean Length of Top 50% of Neuritic Processes ([1]; NGF 10 ng/mL alone): 108 µm | neurite outgrowth (cumulative histogram, FIG. 4) (hippocampal cells; NGF in combination with heat): more effective than either heat or NGF treatment alone in stimulating neurite outgrowth
